Reference: patent publication US20090286722A1 (priority 2005, published 2009)

Key:
D3 mouse ES cell line = test: Differentiation of D3 mouse ES cells to beta cell phenotype, insulin release and insulin/C-peptide content; format: cell-based
Experimental: The D3 mouse ES cell line was routinely cultured on tissue culture plastic coated with 0.1% (w/v) gelatine in DMEM (25 mM glucose) containing 15% foetal bovine serum (FBS), 2 mM glutamine, 50 U/ml penicillin/streptomycin, non-essential amino acids, 0.1 mM β-mercaptoethanol, and 1000 U/ml LIF (leukaemia inhibitory factor). Medium was changed daily and cultures were passaged every 2 days onto fresh geletin-coated plates at a split ratio of 1:5. The cells were passaged by washing the cultures with phosphate-buffer saline and then detached from the plate with a trypsin (2.5 g/L)-EDTA (1 mM) solution. Prior to seeding into new flasks the ES cells were dissociated to single cells suspensions by repeated pipetting.
For differentiation of D3 mouse ES cells, an established protocol was used (Lumelsky, N. et al., 2001, Science 292(5520):1389-94). Briefly, LIF was removed from the culture medium, EBs (embryonic bodies) were then formed by growing the cells as non-adherent clusters. For the selection of nestin positive precursor cells, medium was changed to serum free ITSFn medium and for expanding these progenitors, cells were incubated in N2 serum free medium for 7 days (stage 4) and then differentiated into insulin-containing cell clusters by incubation in N2 serum free medium without bFGF, supplemented with 10 mM nicotinamide for 7 days (stage 5) (control protocol). […] The differentiated cells were harvested at the end of stage 4 and 5 and samples were seeded onto 24 well plates for insulin and C-peptide studies. Insulin release from differentiated cells from stages 4 and 5 were determined using cell monolayers. The cells were harvested with the aid of trypsin/EDTA (Gibco), seeded into 24-multiwell plates (Nunc, Rosklide, Denmark) at a density of 0.1×10^6 cells per well, and allowed to attach overnight.
Prior to the acute test, cells were washed three times and preincubated for 40 minutes at 37° C. in a 1.0 ml Krebs Ringer bicarbonate buffer (115 mM NaCl, 4.7 mM KCl, 1.28 mM CaCl2, 1.2 mM KH2PO4, 1.2 mM MgSO4, 10 mM NaHCO3, 5 g/l bovine serum albumin, pH 7.4) supplemented with 1.1 mM glucose. Test incubations were performed for 20 minutes at 37° C. using the same buffer supplemented with 5.6 mM glucose in the absence (control) and presence of various test agents as indicated in the Figures. After incubation, aliquots of buffer were removed and stored at −20° C. for insulin radioimmunoassay. For assessment of cellular hormone contents, the buffer was completely removed and […] of acid-ethanol solution (1.5% (v/v) HCl, 75% (v/v) ethanol, 23.5% (v/v) H2O) was added. The cells were disrupted with the aid of a pasture pipette and incubated overnight at 4° C. prior to centrifugation (900 rpm) and stored at −20° C.

[1] = target: purified porcine dipeptidyl peptidase IV (Sus scrofa, UniProt P22411); test: DPP IV degradation, % intact peptide by HPLC; format: in vitro ADME; conditions: 37° C., pH 7.8
Experimental: (§1) HPLC peak area data were used to calculate the percentage intact peptide remaining at the various time points during the incubation.

dipeptidyl peptidase IV = dipeptidyl peptidase IV (Sus scrofa, UniProt P22411); test: DPP IV degradation, % intact peptide by HPLC; format: in vitro ADME, porcine; conditions: pig, purified porcine dipeptidyl peptidase IV (DPP IV), 37° C., pH 7.8
Experimental: as §1

human GIP receptor = target: T1, human GIP receptor (Homo sapiens, UniProt P48546); test: Intracellular cAMP production in GIP-receptor transfected CHL cells; format: cell-based
T1 construct: expressed in transfected cells; host or cells: Chinese hamster lung (CHL) fibroblasts
T1 sequence (P48546 22-466): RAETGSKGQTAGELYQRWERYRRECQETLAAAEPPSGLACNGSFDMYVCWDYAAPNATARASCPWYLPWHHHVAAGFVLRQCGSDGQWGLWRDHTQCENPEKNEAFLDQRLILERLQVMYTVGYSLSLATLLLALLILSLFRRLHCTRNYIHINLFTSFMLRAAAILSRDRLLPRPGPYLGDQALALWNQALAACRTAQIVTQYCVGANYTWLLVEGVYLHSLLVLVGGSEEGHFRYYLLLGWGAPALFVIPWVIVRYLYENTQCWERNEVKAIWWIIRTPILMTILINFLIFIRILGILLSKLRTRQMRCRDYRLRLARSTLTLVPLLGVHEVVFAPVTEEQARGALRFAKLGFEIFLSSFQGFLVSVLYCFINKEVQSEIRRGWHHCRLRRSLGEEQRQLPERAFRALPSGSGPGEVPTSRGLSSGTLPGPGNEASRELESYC
Experimental: The cells were then incubated at 37° C. for 6 hours in 1 ml DMEM, supplemented with 0.5% (w/v) BSA and subsequently washed twice with HBS buffer (Hanks Buffered Saline solution). […] The medium was subsequently removed and the cells lysed with 1 ml of 5% trichloroacetic acid containing 0.1 mM unlabelled cAMP and 0.1 mM unlabelled ATP. The intracellular tritiated cAMP was then separated on Dowex and alumina exchange resins (Life Science Research, Larne, UK).

ob/ob mice = test: Acute glucose lowering and insulin release, peptide given i.p. with glucose to 18 hour fasted ob/ob mice
Experimental: Obese diabetic (ob/ob) mice derived from the colony maintained at Aston University, UK (23) were used at 12-16 weeks of age. […] Drinking water and standard rodent maintenance diet (Trouw Nutrition, Cheshire, UK) were freely available.
Food intake and body weight were recorded daily from 5 days before commencement of the treatment regimes. Plasma glucose and insulin concentrations (10:00 h) were monitored at 2-4 day intervals. […] All acute tests were commenced at 10:00 h. […] Serum samples were taken for determination of glucagon concentrations. All other blood samples were collected from the cut tip of the tail vein of conscious mice into chilled fluoride/heparin coated glucose microcentrifuge tubes (Sarstedt, Nümbrecht, Germany) at the times indicated in the Figures. Blood samples were immediately centrifuged using a Beckman microcentrifuge (Beckman Instruments, Galway, Ireland) for 30 seconds at 13,000×g. The resulting plasma was then aliquoted into fresh tubes and stored at −20° C. prior to glucose and insulin determinations.

[2] = culture media supplemented with 1×10^-6 M peptide, Stage 4
[3] = culture media supplemented with 1×10^-6 M peptide, Stage 5

Chain of dipeptidyl peptidase IV (P22411 whole entry): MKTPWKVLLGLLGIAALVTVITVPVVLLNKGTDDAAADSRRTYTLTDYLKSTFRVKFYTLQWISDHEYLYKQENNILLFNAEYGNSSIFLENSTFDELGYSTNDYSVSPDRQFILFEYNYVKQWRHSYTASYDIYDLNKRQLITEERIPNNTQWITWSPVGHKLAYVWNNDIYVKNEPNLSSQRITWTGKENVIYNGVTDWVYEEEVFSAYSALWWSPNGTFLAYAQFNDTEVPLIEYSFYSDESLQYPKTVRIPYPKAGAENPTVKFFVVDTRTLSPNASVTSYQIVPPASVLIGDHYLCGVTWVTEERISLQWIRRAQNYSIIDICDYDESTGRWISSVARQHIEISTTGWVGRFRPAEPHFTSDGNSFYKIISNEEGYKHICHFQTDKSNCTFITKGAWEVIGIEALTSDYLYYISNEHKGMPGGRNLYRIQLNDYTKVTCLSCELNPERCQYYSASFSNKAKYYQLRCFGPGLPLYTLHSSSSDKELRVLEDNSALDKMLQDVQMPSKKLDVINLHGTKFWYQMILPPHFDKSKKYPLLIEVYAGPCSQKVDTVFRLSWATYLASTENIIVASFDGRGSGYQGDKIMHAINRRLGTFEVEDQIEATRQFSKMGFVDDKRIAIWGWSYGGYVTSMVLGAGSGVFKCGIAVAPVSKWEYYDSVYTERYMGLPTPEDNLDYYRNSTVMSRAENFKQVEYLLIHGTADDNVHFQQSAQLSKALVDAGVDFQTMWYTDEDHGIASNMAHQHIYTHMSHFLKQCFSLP
Chain of purified porcine dipeptidyl peptidase IV (P22411 whole entry): as above

CCCCCCCCCCCCCCCC(=O)NCCCC[C@H](NC(=O)[C@H](CC(=O)O)NC(=O)[C@H](CCSC)NC(=O)[C@H](C)NC(=O)[C@@H](NC(=O)[C@H](CO)NC(=O)[C@H](Cc1ccc(O)cc1)NC(=O)[C@H](CC(=O)O)NC(=O)[C@H](CO)NC(=O)[C@@H](NC(=O)[C@H](Cc1ccccc1)NC(=O)[C@@H](NC(=O)CNC(=O)[C@H](CCC(=O)O)NC(=O)[C@H](C)NC(=O)[C@@H](N)Cc1ccc(O)cc1)[C@@H](C)O)[C@@H](C)CC)[C@@H](C)CC)C(=O)N[C@H](C(=O)N[C@@H](Cc1c[nH]cn1)C(=O)N[C@@H](CCC(N)=O)C(=O)N[C@@H](CCC(N)=O)C(=O)N[C@@H](CC(=O)O)C(=O)N[C@@H](Cc1ccccc1)C(=O)N[C@H](C(=O)N[C@@H](CC(N)=O)C(=O)N[C@@H](Cc1c[nH]c2ccccc12)C(=O)N[C@@H](CC(C)C)C(=O)N[C@@H](CC(C)C)C(=O)N[C@@H](C)C(=O)N[C@@H](CCC(N)=O)C(=O)N[C@@H](CCCCN)C(=O)NCC(=O)N[C@@H](CCCCN)C(=O)N[C@@H](CCCCN)C(=O)N[C@@H](CC(N)=O)C(=O)N[C@@H](CC(=O)O)C(=O)N[C@@H](Cc1c[nH]c2ccccc12)C(=O)N[C@@H](CCCCN)C(=O)N[C@@H](Cc1c[nH]cn1)C(=O)N[C@@H](CC(N)=O)C(=O)N[C@H](C(=O)N[C@H](C(=O)N[C@@H](CCC(N)=O)C(=O)O)[C@@H](C)O)[C@@H](C)CC)C(C)C)[C@@H](C)CC [GIP(LysPAL^16)]
glucose-induced insulin release of differentiated stage 4 cells, modified versus control protocol (D3 mouse ES cell line; 1×10^-6 M peptide in media, stage 4, 0-22.0 mM glucose): significantly higher
response of differentiated stage 5 cells to glucose (D3 mouse ES cell line; 1×10^-6 M peptide in media, stage 5): appear not respond to glucose
increase in C-peptide content compared to control, stage 4 (D3 mouse ES cell line; 1×10^-6 M peptide, stage 4): 1.5 fold
increase in C-peptide content compared to control, stage 5 (D3 mouse ES cell line; 1×10^-6 M peptide, stage 5): 1.3 fold
C-Peptide content of differentiated D3 cluster cells, Stage 4 (D3 mouse ES cell line; [2]): 124.5 ± 3.13 pmol/mg protein/20 mins
Insulin content of differentiated D3 cluster cells, Stage 4 (D3 mouse ES cell line; [2]): 9154 ± 291.1 pmol/mg protein/20 mins
C-Peptide content of differentiated D3 cluster cells, Stage 5 (D3 mouse ES cell line; [3]): 121.9 ± 3.43 pmol/mg protein/20 mins
Insulin content of differentiated D3 cluster cells, Stage 5 (D3 mouse ES cell line; [3]): 8532 ± 626.5 pmol/mg protein/20 mins
% Intact peptide remaining after time (h) 0 ([1]; 0 h incubation with DPP IV (5 mU)): 100%
% Intact peptide remaining after time (h) 24 ([1]; 24 h incubation with DPP IV (5 mU)): remained fully intact
remaining at 2 h, 2 mM (dipeptidyl peptidase IV; 2 h incubation with DPP IV (5 mU), read-out: % Intact peptide remaining after time (h) 2): 100%
remaining at 8 h, 2 mM (dipeptidyl peptidase IV; 8 h incubation with DPP IV (5 mU), read-out: % Intact peptide remaining after time (h) 8): 100%
remaining at 24 h, 2 mM (dipeptidyl peptidase IV; 24 h incubation with DPP IV (5 mU), read-out: % Intact peptide remaining after time (h) 24): 100%
EC50 (human GIP receptor): 2.9 nM
plasma glucose concentrations and AUC (0-60 min) compared to glucose alone (ob/ob mice; 25 nmol/kg i.p. with glucose 18 mmol/kg): significantly reduced
overall enhancement of insulin release over native GIP (ob/ob mice; 25 nmol/kg i.p. with glucose, insulin AUC 0-60 min): 2.4 fold
